Measurements reported in ChEMBL document CHEMBL1146120 (J Med Chem, 2006).
The source made the active and inactive calls. The rule behind the calls is not given here.

Columns and labels:
Rattus norvegicus [1] = organism: Rattus norvegicus; assay: Activity against NO-mediated vasorelaxation of KCl-induced contractile tone in Wistar rat thoracic aortic ring; format: functional; details: Aorta
[2] = biological target: T1, Type-1 angiotensin II receptor (Homo sapiens) (UniProt P30556); assay: Antagonist activity against AT1 receptor after 20 min preincubation; format: functional
T1 sequence (whole entry): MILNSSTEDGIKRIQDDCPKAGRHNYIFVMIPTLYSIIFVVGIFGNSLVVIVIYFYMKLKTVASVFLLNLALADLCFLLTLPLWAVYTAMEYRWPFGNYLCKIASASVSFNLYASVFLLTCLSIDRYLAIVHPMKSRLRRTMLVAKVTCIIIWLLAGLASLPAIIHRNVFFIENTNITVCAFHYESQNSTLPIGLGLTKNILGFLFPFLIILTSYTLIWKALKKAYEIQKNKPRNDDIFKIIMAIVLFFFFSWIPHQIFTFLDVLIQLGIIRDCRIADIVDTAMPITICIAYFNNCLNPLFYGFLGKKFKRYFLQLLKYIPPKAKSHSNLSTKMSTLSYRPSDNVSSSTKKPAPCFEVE

[3] = biological target: T1, Type-1 angiotensin II receptor (Homo sapiens); assay: Antagonist activity against AT1 receptor after 60 min preincubation; format: functional
Rattus norvegicus [4] = organism: Rattus norvegicus; assay: Activity against NO-mediated vasorelaxation of KCl-induced contractile tone in Wistar rat thoracic aortic ring at 1 uM; format: functional, Aorta; parameters: scale not given: the % may be the effect or the level left
Rattus norvegicus [5] = organism: Rattus norvegicus; assay: Inhibition of NO-mediated vasorelaxation of KCl-induced contractile tone in Wistar rat thoracic aortic ring; format: functional; details: Aorta
Rattus norvegicus [6] = assay: Antihypertrophic activity in Wistar rat at 21.3 mg/kg, ip; format: functional, organism-based; parameters: dose 21.3 mg/kg
Plasma = assay: Inhibition of ADP-mediated platelet aggregation in Wistar rat platelet-rich plasma at 100 uM; format: functional; parameters: scale not given: the % may be the effect or the level left

Row | Kb [2] | Kb [3] | IC50 (Rattus norvegicus [5]) | Compound | Emax (Rattus norvegicus [1]) | Activity (Rattus norvegicus [4]) | Activity (Rattus norvegicus [4]; Aorta) | Activity (Rattus norvegicus [6]) | Activity (Plasma)
1 | inactive | 12 nM | – | CCCCc1nc(Cl)c(COC(=O)c2cccc(C(C)O[N+](=O)[O-])c2)n1Cc1ccc(-c2ccccc2-c2nn[nH]n2)cc1 (stereo not given) | 47% | <25% | – | – | –
2 | inactive | – | 32400 nM | CCCCc1nc(Cl)c(COC(=O)c2c(C)ccc(CO[N+](=O)[O-])c2C)n1Cc1ccc(-c2ccccc2-c2nn[nH]n2)cc1 | 100% | <25% | – | – | –
3 | – | – | 6030 nM | CCCCc1nc(Cl)c(C(=O)Oc2cccc(CO[N+](=O)[O-])c2)n1Cc1ccc(-c2ccccc2-c2nn[nH]n2)cc1 | 100% | <25% | – | – | –
4 | 8 nM | – | 12300 nM | CCCCc1nc(Cl)c(COC(=O)c2cccc(CO[N+](=O)[O-])n2)n1Cc1ccc(-c2ccccc2-c2nn[nH]n2)cc1 | 100% | <25% | – | – | –
5 | 19 nM | – | 66.1 nM | CCCCc1nc(Cl)c(COC(=O)c2ccc(CO[N+](=O)[O-])cc2)n1Cc1ccc(-c2ccccc2-c2nn[nH]n2)cc1 | 100% | – | Active | – | –
6 | – | 10 nM | 275 nM | CCCCc1nc(Cl)c(COC(=O)c2cccc(CO[N+](=O)[O-])c2)n1Cc1ccc(-c2ccccc2-c2nn[nH]n2)cc1 | 100% | – | Active | Active | 41%
7 | inactive | – | 275 nM | CCCCc1nc(Cl)c(C(=O)Oc2ccc(CO[N+](=O)[O-])cc2)n1Cc1ccc(-c2ccccc2-c2nn[nH]n2)cc1 | 100% | – | Active | – | –
8 | inactive | 3 nM | 15100 nM | CCCCc1nc(Cl)c(CO[N+](=O)[O-])n1Cc1ccc(-c2ccccc2-c2nn[nH]n2)cc1 [LOSARTAN NITROOXY ESTER] | 100% | <25% | – | – | –
9 | 16 nM | – | 851 nM | CCCCc1nc(Cl)c(COC(=O)CCCCO[N+](=O)[O-])n1Cc1ccc(-c2ccccc2-c2nn[nH]n2)cc1 | 100% | – | – | – | –
10 | inactive | 8 nM | 7760 nM | CCCCc1nc(Cl)c(COC(=O)c2ccc(C(C)O[N+](=O)[O-])cc2)n1Cc1ccc(-c2ccccc2-c2nn[nH]n2)cc1 (stereo not given) | 100% | <25% | – | – | –
11 | – | – | – | C[C@H](CS)C(=O)N1CCC[C@H]1C(=O)O | – | – | – | Active | –
12 | – | – | – | CCCCc1nc(Cl)c(CO)n1Cc1ccc(-c2ccccc2-c2nnn[nH]2)cc1 [LOSARTAN] | – | – | – | Active | 50%
